In ChEMBL document CHEMBL1128795, “N-(Quinuclidin-3-yl)-2-(1-methyl-1H-indol-3-yl)-2-oxo-acetamide: a high affinity 5-HT3 receptor partial agonist” (Bioorg Med Chem Lett, 1995):

Tests used:
[1] = target: D(2) dopamine receptor (Homo sapiens, UniProt P14416); assay: Binding affinity against Dopamine D2 receptor
[2] = target: Beta-2 adrenergic receptor (Homo sapiens, UniProt P07550); assay: Binding affinity against Beta-2 adrenergic receptor
[3] = target: T1, 5-hydroxytryptamine receptor 2C (Homo sapiens, UniProt P28335); assay: Binding affinity against 5-hydroxytryptamine 2C receptor
T1 sequence (P28335 whole entry): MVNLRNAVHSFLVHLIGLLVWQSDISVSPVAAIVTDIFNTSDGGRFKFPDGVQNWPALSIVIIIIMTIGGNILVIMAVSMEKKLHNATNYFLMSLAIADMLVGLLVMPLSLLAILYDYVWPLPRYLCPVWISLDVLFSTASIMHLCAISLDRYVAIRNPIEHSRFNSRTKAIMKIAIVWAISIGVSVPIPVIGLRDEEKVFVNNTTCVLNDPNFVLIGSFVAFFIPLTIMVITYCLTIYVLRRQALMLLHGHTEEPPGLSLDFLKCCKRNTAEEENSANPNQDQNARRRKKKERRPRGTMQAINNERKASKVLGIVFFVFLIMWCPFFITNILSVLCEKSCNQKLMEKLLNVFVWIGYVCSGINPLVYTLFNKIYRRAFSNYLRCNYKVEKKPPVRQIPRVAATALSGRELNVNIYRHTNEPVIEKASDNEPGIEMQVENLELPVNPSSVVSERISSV

[4] = target: T2, Alpha-1B adrenergic receptor (Homo sapiens, UniProt P35368); assay: Binding affinity against Adrenogenic Alpha-1B receptor
T2 sequence (P35368 whole entry): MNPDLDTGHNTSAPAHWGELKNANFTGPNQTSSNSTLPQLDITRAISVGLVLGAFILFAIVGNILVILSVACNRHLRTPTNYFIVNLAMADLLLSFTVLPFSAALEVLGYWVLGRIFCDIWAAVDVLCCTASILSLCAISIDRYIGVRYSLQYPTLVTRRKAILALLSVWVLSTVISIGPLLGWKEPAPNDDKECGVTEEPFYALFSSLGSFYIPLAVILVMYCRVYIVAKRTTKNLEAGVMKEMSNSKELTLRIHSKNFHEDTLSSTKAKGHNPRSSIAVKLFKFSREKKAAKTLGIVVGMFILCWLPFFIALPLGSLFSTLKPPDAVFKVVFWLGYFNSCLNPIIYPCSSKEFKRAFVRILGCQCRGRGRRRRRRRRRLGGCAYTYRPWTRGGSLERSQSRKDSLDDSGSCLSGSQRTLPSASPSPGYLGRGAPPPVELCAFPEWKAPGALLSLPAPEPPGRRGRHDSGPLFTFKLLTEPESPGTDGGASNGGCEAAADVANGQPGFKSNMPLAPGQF

[5] = target: T3, Muscarinic acetylcholine receptor M2 (Homo sapiens, UniProt P08172); assay: Binding affinity against Muscarinic M2 receptor
T3 sequence (P08172 whole entry): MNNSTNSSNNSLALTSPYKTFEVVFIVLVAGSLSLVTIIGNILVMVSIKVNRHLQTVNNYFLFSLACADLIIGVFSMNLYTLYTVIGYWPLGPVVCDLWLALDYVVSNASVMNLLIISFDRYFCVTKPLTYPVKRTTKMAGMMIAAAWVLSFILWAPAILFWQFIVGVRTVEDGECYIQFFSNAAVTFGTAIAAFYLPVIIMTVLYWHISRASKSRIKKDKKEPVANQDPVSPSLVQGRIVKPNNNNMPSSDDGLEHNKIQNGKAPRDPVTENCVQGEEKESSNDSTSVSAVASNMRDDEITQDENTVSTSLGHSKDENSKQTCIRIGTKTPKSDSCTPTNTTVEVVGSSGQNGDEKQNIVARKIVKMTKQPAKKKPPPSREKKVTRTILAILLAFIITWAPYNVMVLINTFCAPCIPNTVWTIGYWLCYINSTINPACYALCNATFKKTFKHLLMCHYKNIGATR

[6] = target: T4, Alpha-1A adrenergic receptor (Homo sapiens, UniProt P35348); assay: Binding affinity against Alpha-1A adrenergic receptor
T4 sequence (P35348 whole entry): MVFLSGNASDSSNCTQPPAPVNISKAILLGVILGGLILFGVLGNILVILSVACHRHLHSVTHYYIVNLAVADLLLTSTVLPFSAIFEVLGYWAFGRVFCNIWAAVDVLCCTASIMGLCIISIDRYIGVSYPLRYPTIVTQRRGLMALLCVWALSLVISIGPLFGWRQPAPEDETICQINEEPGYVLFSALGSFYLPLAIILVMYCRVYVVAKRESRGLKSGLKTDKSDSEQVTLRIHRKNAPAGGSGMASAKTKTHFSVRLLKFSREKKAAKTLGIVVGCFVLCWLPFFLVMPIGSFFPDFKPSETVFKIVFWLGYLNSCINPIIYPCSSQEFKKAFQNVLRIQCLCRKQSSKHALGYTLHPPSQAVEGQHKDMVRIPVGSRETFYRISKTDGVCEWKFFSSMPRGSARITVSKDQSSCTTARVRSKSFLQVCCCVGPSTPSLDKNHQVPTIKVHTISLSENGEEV

[7] = target: T5, 5-hydroxytryptamine receptor 1A (Mus musculus, UniProt Q64264); assay: Binding affinity against 5-hydroxytryptamine 1A receptor
T5 sequence (Q64264 whole entry): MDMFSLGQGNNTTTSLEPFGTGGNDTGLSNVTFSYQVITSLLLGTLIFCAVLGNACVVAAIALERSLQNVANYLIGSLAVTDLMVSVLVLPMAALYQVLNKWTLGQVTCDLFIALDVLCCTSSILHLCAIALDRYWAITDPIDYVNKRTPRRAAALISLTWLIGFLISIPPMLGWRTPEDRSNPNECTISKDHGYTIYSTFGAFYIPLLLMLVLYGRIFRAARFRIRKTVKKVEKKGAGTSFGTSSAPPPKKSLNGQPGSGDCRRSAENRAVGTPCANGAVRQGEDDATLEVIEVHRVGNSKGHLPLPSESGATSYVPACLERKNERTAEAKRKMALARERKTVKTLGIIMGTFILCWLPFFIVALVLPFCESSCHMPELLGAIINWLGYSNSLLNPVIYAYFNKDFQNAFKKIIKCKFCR

[8] = species on record: Rattus norvegicus; assay: Tested for effective concentration against 5-HT mediated depolarization of isolated rat vagus nerve; format: functional
[9] = target: 5-hydroxytryptamine receptor 1D (Homo sapiens, UniProt P28221); assay: Binding affinity against 5-Hydroxytryptamine 1D receptor
[10] = target: 5-hydroxytryptamine receptor 2A (Homo sapiens, UniProt P28223); assay: Binding affinity against 5-Hydroxytryptamine 2A receptor
[11] = target: Beta-1 adrenergic receptor (Homo sapiens, UniProt P08588); assay: Binding affinity against Beta-1 adrenergic receptor
[12] = target: 5-hydroxytryptamine receptor 4 (Homo sapiens, UniProt Q13639); assay: Binding affinity against 5-Hydroxytryptamine 4 receptor
Chain of 5-hydroxytryptamine receptor 4 (Q13639 whole entry): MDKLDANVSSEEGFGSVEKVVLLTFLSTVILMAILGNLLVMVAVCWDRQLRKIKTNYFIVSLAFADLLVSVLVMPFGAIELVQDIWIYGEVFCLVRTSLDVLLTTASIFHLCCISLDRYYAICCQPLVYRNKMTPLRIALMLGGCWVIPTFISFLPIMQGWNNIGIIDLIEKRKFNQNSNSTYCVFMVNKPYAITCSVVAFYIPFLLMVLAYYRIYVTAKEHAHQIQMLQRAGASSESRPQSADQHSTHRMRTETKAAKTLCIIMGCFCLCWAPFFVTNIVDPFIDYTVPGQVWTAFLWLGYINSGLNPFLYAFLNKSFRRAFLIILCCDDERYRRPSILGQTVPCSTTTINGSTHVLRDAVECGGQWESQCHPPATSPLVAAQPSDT

Chain of Beta-2 adrenergic receptor (P07550 whole entry): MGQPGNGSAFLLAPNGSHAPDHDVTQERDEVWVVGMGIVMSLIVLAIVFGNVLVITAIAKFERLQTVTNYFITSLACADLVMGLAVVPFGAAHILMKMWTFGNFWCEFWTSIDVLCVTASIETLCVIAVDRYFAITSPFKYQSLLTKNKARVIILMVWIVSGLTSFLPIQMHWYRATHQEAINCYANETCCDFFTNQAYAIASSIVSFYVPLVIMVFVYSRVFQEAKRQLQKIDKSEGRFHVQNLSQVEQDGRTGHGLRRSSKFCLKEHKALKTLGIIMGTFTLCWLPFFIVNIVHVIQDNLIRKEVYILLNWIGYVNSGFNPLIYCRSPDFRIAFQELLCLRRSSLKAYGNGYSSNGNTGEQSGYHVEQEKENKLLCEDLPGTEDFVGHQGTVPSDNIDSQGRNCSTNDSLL
Chain of Beta-1 adrenergic receptor (P08588 whole entry): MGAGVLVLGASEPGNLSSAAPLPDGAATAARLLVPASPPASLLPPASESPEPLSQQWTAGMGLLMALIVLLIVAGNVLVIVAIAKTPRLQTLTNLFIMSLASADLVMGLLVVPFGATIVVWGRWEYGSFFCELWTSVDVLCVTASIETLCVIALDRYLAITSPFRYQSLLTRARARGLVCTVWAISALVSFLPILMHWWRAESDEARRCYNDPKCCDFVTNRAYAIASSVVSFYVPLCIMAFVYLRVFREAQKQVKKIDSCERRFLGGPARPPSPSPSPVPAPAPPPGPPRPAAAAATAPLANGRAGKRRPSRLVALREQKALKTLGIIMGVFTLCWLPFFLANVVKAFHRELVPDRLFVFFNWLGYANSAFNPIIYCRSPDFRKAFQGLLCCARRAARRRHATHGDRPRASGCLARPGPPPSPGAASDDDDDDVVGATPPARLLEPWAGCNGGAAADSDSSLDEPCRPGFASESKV
Chain of 5-hydroxytryptamine receptor 1D (P28221 whole entry): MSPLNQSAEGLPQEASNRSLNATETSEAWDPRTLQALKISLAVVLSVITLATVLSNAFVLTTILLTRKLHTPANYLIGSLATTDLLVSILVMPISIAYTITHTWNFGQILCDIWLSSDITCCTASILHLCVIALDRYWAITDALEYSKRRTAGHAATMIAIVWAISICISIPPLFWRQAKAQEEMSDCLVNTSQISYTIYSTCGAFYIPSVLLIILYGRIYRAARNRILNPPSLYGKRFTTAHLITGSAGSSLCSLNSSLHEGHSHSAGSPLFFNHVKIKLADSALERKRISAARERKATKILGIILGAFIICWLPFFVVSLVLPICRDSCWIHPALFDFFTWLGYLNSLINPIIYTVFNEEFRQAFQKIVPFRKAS
Chain of 5-hydroxytryptamine receptor 2A (P28223 whole entry): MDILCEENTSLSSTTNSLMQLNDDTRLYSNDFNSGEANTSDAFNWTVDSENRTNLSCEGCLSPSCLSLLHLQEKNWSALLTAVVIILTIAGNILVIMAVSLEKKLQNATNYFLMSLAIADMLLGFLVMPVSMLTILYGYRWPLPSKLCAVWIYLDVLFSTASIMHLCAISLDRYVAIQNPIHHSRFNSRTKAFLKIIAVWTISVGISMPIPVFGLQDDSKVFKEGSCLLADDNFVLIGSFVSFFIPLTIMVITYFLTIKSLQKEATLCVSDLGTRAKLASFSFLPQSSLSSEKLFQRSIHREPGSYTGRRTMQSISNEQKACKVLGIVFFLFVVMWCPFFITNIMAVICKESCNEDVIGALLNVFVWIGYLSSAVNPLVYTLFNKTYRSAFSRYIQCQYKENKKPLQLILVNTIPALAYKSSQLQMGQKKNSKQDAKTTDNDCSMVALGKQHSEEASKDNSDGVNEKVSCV
Chain of D(2) dopamine receptor (P14416 whole entry): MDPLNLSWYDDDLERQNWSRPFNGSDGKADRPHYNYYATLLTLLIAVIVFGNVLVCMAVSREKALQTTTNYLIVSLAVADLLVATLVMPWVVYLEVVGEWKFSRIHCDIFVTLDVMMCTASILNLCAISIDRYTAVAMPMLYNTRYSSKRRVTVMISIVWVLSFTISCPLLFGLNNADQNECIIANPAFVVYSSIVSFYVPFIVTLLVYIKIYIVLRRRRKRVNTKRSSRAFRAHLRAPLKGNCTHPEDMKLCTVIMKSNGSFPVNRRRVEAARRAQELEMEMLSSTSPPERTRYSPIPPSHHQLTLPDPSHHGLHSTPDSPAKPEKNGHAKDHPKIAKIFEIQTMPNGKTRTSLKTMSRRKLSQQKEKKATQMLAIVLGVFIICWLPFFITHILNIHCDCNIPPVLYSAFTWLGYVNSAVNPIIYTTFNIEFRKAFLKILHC

SMILES	Ki [1]	Ki [2]	Ki [3]	Ki [4]	Ki [5]	Ki [6]	Ki [7]	EC50 [8]	Ki [9]	Ki [10]	Ki [11]	Ki [12]
Cn1cc(C(=O)C(=O)N[C@H]2CN3CCC2CC3)c2ccccc21	> 100 µM	> 10 µM	15.8 µM	> 10 µM	50.1 µM	> 10 µM	> 100 µM	0.0355 µM	39.8 µM	12.6 µM	> 10 µM	–
Cn1cc(C(=O)C(=O)N[C@@H]2CN3CCC2CC3)c2ccccc21	> 100 µM	> 100 µM	12.6 µM	15.8 µM	50.1 µM	25.1 µM	> 100 µM	2.14 µM	> 100 µM	25.1 µM	> 100 µM	0.398 µM
